Measured values from PMC6233161, “The anti-tumor diterpene oridonin is a direct inhibitor of Nucleolin in cancer cells” (Scientific Reports, 2018).

Columns and labels:
HSP70 = biological target: T1, HSP70 (Homo sapiens, UniProt P0DMV8); experiment: DARTS in Jurkat lysate and living cells at […] (MS and western blot); pull-down with immobilized oridonin; format: cell-based
T1 construct: gene HSPA1A

Nucleolin = biological target: T2, Nucleolin (Homo sapiens, UniProt P19338); experiment: SPR (Biacore […], immobilized Nucleolin on CM5 chip); supported by CETSA, DARTS and affinity pull-down; format: binding
T2 construct: gene NCL; Recombinant human Nucleolin
T2 sequence (P19338 2-710): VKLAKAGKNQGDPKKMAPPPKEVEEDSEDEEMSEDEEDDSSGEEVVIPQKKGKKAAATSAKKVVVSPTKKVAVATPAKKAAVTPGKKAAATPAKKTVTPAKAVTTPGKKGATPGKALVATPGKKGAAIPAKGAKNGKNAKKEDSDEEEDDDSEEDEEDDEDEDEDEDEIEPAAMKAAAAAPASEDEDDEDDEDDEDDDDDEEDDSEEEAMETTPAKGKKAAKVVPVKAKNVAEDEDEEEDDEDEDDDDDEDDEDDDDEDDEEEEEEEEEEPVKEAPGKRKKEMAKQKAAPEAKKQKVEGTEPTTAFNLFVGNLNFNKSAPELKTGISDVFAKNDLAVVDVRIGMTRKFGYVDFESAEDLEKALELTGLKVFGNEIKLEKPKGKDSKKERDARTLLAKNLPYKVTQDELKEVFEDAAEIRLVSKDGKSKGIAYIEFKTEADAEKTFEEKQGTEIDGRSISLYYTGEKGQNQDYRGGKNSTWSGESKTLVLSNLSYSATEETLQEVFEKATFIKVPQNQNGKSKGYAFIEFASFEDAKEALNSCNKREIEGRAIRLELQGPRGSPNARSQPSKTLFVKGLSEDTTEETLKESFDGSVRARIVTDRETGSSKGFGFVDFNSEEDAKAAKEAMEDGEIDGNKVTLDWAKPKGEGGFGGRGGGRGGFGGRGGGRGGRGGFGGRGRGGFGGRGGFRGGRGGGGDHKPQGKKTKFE

T1 sequence (P0DMV8 2-641): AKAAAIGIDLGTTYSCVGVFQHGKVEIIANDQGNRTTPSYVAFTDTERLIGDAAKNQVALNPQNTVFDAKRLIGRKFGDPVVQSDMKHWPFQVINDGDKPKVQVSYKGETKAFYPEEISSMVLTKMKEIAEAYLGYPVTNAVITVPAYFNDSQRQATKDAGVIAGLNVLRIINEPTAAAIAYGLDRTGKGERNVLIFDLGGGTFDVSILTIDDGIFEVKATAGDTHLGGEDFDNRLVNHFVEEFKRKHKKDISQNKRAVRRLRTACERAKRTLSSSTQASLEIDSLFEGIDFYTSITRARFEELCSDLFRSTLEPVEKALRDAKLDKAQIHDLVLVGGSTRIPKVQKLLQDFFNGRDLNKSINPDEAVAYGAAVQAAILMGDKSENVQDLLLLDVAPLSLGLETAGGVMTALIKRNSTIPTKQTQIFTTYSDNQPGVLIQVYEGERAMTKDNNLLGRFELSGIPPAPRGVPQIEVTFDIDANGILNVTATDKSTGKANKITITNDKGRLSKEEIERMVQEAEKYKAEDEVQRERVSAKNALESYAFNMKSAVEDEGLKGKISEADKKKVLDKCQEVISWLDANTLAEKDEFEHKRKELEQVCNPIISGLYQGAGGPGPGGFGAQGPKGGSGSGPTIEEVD

- Kd (Nucleolin): 3.8 ± 1.2 nM
Structure (SMILES): C=C1C(=O)[C@]23[C@H](O)[C@H]1CC[C@H]2[C@@]12CO[C@]3(O)[C@@H](O)[C@@H]1C(C)(C)CC[C@@H]2O [oridonin]
- DARTS in Jurkat lysate and living cells at 5 μM (MS and western blot); pull-down (HSP70): only three proteins emerged as putative oridonin targets: HSP70, HSP90, and Nucleolin
